In PubChem BioAssay (NCI):
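Cultured in 96-well plates, cells were exposed to test compound for 48 hours across five concentrations. At the GI50, growth is halved. TGI: concentration producing complete growth inhibition.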

How the values were obtained:
Assay in all cases: DTP human tumour cell line panel, 48 h
SF-295 CNS = system: SF-295 CNS
SNB-19 CNS = system: SNB-19 CNS
HT29 colon = system: HT29 colon
HL-60(TB) leukemia = system: HL-60(TB) leukemia
LOX IMVI melanoma = system: LOX IMVI melanoma
SF-539 CNS = system: SF-539 CNS
NCI-H23 lung = system: NCI-H23 lung
MOLT-4 leukemia = system: MOLT-4 leukemia
UO-31 renal = system: UO-31 renal
CAKI-1 renal = system: CAKI-1 renal

COc1cnc2cc(C(=O)O)c3ccccc3c2c1 gave a TGI (SF-295 CNS) of over 100 µM, a TGI (SNB-19 CNS) of over 100 µM and a TGI (HT29 colon) of over 100 µM. The TGI (HL-60(TB) leukemia) was over 100 µM, the TGI (LOX IMVI melanoma) was over 100 µM and the TGI (SF-539 CNS) was over 100 µM. The TGI (NCI-H23 lung) was over 100 µM, the TGI (MOLT-4 leukemia) was over 100 µM and the TGI (UO-31 renal) was over 100 µM. For the same molecule, the TGI (CAKI-1 renal) was over 100 µM.

With Cc1c(C(=O)CSc2nc3ccccc3[nH]2)c(=O)n(-c2ccccc2)n1C the TGI (SF-295 CNS) was over 100 µM, the TGI (SNB-19 CNS) was over 100 µM and the TGI (HT29 colon) was over 100 µM. It also gave a TGI (HL-60(TB) leukemia) of over 100 µM, a TGI (LOX IMVI melanoma) of over 100 µM and a TGI (SF-539 CNS) of over 100 µM. For the same molecule, the TGI (NCI-H23 lung) was over 100 µM, the TGI (MOLT-4 leukemia) was over 100 µM and the TGI (UO-31 renal) was over 100 µM. The TGI (CAKI-1 renal) was over 100 µM.

Work on COc1cccc(/C=C/C(=O)c2cc3c(N)c(C(=O)Nc4cccc5ccccc45)sc3nc2C)c1 yielded a GI50 (SF-295 CNS) of 1.67 µM, a TGI (SF-295 CNS) of 23.1 µM and a GI50 (SNB-19 CNS) of 1.69 µM. For the same molecule, the TGI (SNB-19 CNS) was over 50 µM, the GI50 (HT29 colon) was 0.65 µM and the TGI (HT29 colon) was 2.06 µM. It also gave a GI50 (HL-60(TB) leukemia) of 1.06 µM, a TGI (HL-60(TB) leukemia) of 2.61 µM and a GI50 (LOX IMVI melanoma) of 0.826 µM. The TGI (LOX IMVI melanoma) was 1.69 µM, the GI50 (SF-539 CNS) was 1.17 µM and the TGI (SF-539 CNS) was 2.8 µM. It also gave a GI50 (NCI-H23 lung) of 1.96 µM, a TGI (NCI-H23 lung) of over 50 µM and a GI50 (MOLT-4 leukemia) of 1.46 µM. For the same molecule, the TGI (MOLT-4 leukemia) was over 50 µM, the GI50 (UO-31 renal) was 0.889 µM and the TGI (UO-31 renal) was 2.08 µM. For the same molecule, the GI50 (CAKI-1 renal) was 1.6 µM and the TGI (CAKI-1 renal) was 6.34 µM.

CN(C=O)/C=C/c1cc(O)ccc1O was tested, and the TGI (SF-295 CNS) was 47.7 µM, the TGI (SNB-19 CNS) was over 100 µM and the TGI (HT29 colon) was 49.2 µM. For the same molecule, the TGI (HL-60(TB) leukemia) was 40.8 µM, the TGI (LOX IMVI melanoma) was 45 µM and the TGI (SF-539 CNS) was over 65.4 µM. For the same molecule, the TGI (NCI-H23 lung) was 64.3 µM, the TGI (MOLT-4 leukemia) was 29.4 µM and the TGI (UO-31 renal) was 47 µM. It also gave a TGI (CAKI-1 renal) of 38.9 µM.

O=c1[nH]c2ccccc2n1-c1n[nH]c2ccccc12 gave a GI50 (SF-295 CNS) of 25.4 µM, a TGI (SF-295 CNS) of 59.8 µM and a GI50 (SNB-19 CNS) of 56.6 µM. For the same molecule, the TGI (SNB-19 CNS) was over 100 µM, the GI50 (HT29 colon) was 37.6 µM and the TGI (HT29 colon) was over 100 µM. It also gave a GI50 (HL-60(TB) leukemia) of 12.1 µM, a TGI (HL-60(TB) leukemia) of 43.2 µM and a GI50 (LOX IMVI melanoma) of 17.4 µM. It also gave a TGI (LOX IMVI melanoma) of 52.5 µM, a GI50 (SF-539 CNS) of 56.9 µM and a TGI (SF-539 CNS) of over 100 µM. The GI50 (NCI-H23 lung) was 38.5 µM, the TGI (NCI-H23 lung) was over 100 µM and the GI50 (MOLT-4 leukemia) was 17.3 µM. It also gave a TGI (MOLT-4 leukemia) of 84.9 µM, a GI50 (UO-31 renal) of 12.5 µM and a TGI (UO-31 renal) of over 100 µM. The GI50 (CAKI-1 renal) was 25.3 µM and the TGI (CAKI-1 renal) was over 100 µM.

In the case of Cc1cc(Cl)ccc1Nc1nc(C(F)(F)F)ccc1C(=O)N1CCN(c2cccc(Cl)c2)CC1, the GI50 (SF-295 CNS) is reported as 88.9 µM, the TGI (SF-295 CNS) is reported as over 100 µM and the GI50 (SNB-19 CNS) is reported as over 100 µM. For the same molecule, the TGI (SNB-19 CNS) was over 100 µM, the GI50 (HT29 colon) was 46.1 µM and the TGI (HT29 colon) was over 100 µM. The GI50 (HL-60(TB) leukemia) was 69.6 µM, the TGI (HL-60(TB) leukemia) was over 100 µM and the GI50 (LOX IMVI melanoma) was over 100 µM. It also gave a TGI (LOX IMVI melanoma) of over 100 µM, a GI50 (SF-539 CNS) of over 100 µM and a TGI (SF-539 CNS) of over 100 µM. It also gave a GI50 (NCI-H23 lung) of over 100 µM, a TGI (NCI-H23 lung) of over 100 µM and a GI50 (MOLT-4 leukemia) of 19.6 µM. The TGI (MOLT-4 leukemia) was over 100 µM, the GI50 (UO-31 renal) was 67.3 µM and the TGI (UO-31 renal) was over 100 µM. It also gave a GI50 (CAKI-1 renal) of 90.7 µM and a TGI (CAKI-1 renal) of over 100 µM.

C#CCN(Cc1ccc2nc(N)[nH]c(=O)c2c1)c1ccc(C(=O)NC(CCC(=O)O)C(=O)O)cc1 (stereo not given) showed a TGI (SF-295 CNS) of over 100 µM, a TGI (SNB-19 CNS) of over 100 µM and a TGI (HT29 colon) of over 100 µM. The TGI (HL-60(TB) leukemia) was over 100 µM, the TGI (LOX IMVI melanoma) was over 100 µM and the TGI (SF-539 CNS) was over 100 µM. It also gave a TGI (NCI-H23 lung) of over 100 µM, a TGI (MOLT-4 leukemia) of over 100 µM and a TGI (UO-31 renal) of over 100 µM. The TGI (CAKI-1 renal) was over 100 µM.
